Reference: patent US20030068275A1, “Coordination complexes for detecting analytes, and methods of making and using the same” (priority 2001, published 2003)

Assay: Detection of nitric oxide with the [Co2(O2CAr^Tol)4(dansylpiperazine)2] fluorescent sensor
Conditions: for peak emission intensity wavelength: CH2Cl2, excited at 350 nm
Experimental: Detection of Nitric Oxide with the [Co2(O2CAr^Tol)4(dansylpiperazine)2Fluorescent Sensor. It is believed that in solution [Co2(O2CAr^Tol)4(dansylpiperazine)2] is in equilibrium between two species: the [Co2(μ-O2CAr^Tol)4(dansylpiperazine)2] (paddle-wheel) isomer and the [Co2(μ-O2CAr^Tol)2(O2CAr^Tol)2(dansylpiperazine)2] (windmill) isomer. […] The ability of the [Co2(O2CAr^Tol)4(dansylpiperazine)2] system to act as a nitric oxide sensor was tested. […] The exact reaction that occurs in this experiment has not yet been determined.
The fluorescence response of [Co2(O2CAr^Tol)4(dansylpiperazine)2] after exposure to excess NO in CH2Cl2 was measured spectroscopically. Solutions were excited at 350 nm and the emission spectrum recorded. The peak emission intensity is at 503 nm before exposure NO, but shifts to 513 nm after exposure to NO. Emission spectra, shown in FIG. 5, were recorded at 0, 1, 5, 10, 20, 30, 40, 50, and 60 minutes post exposure to NO. A fluorescence increase of 9.6-fold was observed after 60 minutes.

In the case of “[Co2(μ-O2CAr^Tol)4(dansylpiperazine)2] [[Co2(O2CAr^Tol)4(dansylpiperazine)2]]”, the fluorescence increase (CH2Cl2, excess NO, excited at 350 nm, after 60 minutes) was 9.6 fold, the “peak emission intensity wavelength” value (after exposure to excess NO) was 513 nm and the “peak emission intensity wavelength” value (before exposure to NO) was 503 nm. For the same substance, the “fluorescence in the absence of nitric oxide” value (solution in dichloromethane, before NO (FIG. 4b, left)) was “little to no fluorescence” and the “fluorescence change after exposure to nitric oxide” value (solution in dichloromethane, excess NO (FIG. 4b, right)) was “increase in fluorescence”.
